Laboratory results taken from patent US8304394B2, “Low side effect pharmaceutical composition containing isoniazid” (priority 2008, dated 2012).

Key:
rabbits = details: pretreatment with amidase inhibitor; cited from earlier work
[1] = system: Male SD (Sprague-Dawley) rats; assay: Liver histopathology by light and electron microscopy in the rat INH study; assay type: in vivo
Procedure: (§1) Animals were randomized into one of five groups, each involving three treatments. The first treatment involved either a BNPP injection of 25 mg/kg or a BNPP vehicle (VEH1) injection (saline). […] The second treatment involved injections of either 100 mg/kg DSF or DSF vehicle (VEH2, corn oil). DSF was dissolved in corn oil and i.p. injected at a volume of […]. The third treatment involved injections of INH (25 mg/kg) or INH vehicle (VEH3, saline). INH was dissolved in saline (0.9% NaCl), and i.p. injected at a volume of […]. The first treatment (BNPP or VEH1) was administered 30 minutes before the third treatment (INH or VEH3), and the second treatment (DSF or VEH2) was administered 15 minutes before the third treatment (INH or VEH3).
• (1) Normal control group (NC, n=12): continuously injections of VEH1, VEH2 and VEH3 intraperitoneally once every day for 21 days; • (2) INH group (INH, n=7): continuously injections of INH, VEH1 and VEH2 intraperitoneally once every day for 21 days; • (3) BNPP-INH group (BNPP-INH, n=7): continuously injections of BNPP, INH and VEH2 intraperitoneally once every day for 21 days; • (4) DSF-INH group (DSF-INH, n=7): continuously injections of DSF, INH and VEH1 intraperitoneally once every day for 21 days; • (5) BNPP-DSF-INH group (BNPP-DSF-INH, n=7): continuously injections of BNPP DSH and INH intraperitoneally once every day for 21 days;
After the rats were sacrificed, the livers were subjected to histology analysis.

[2] = system: Male SD (Sprague-Dawley) rats; assay: Galactose elimination capacity (GEC) residual liver function test in the rat INH study; assay type: in vivo; details: i.p. once daily for 21 days, galactose 0.5 g/kg i.v., mean±SD, control 4.9±0.8
Procedure: as §1
• (1) Normal control group (NC, n=12): continuously injections of VEH1, VEH2 and VEH3 intraperitoneally once every day for 21 days; • (2) INH group (INH, n=7): continuously injections of INH, VEH1 and VEH2 intraperitoneally once every day for 21 days; • (3) BNPP-INH group (BNPP-INH, n=7): continuously injections of BNPP, INH and VEH2 intraperitoneally once every day for 21 days; • (4) DSF-INH group (DSF-INH, n=7): continuously injections of DSF, INH and VEH1 intraperitoneally once every day for 21 days; • (5) BNPP-DSF-INH group (BNPP-DSF-INH, n=7): continuously injections of BNPP DSH and INH intraperitoneally once every day for 21 days; […]

[3] = system: Male SD (Sprague-Dawley) rats; assay: Rat 21-day INH hepatotoxicity study: plasma AST/ALT, body and relative liver weight; details: i.p. once daily for 21 days, INH 25 mg/kg, mean±SD

## O=[N+]([O-])c1ccc(OP(=O)(O)Oc2ccc([N+](=O)[O-])cc2)cc1 [BNPP, bis-p-nitrophenyl phosphate]
rabbits
  effect on isoniazid-induced hepatotoxicity: can prevent isoniazid-induced hepatotoxicity

## NNC(=O)c1ccncc1 [INH, isoniazid]
[1]; daily i.p. injections for three weeks
  hepatic necrosis (EM results): no hepatic necrosis was observed
[1]; daily i.p. injections for three weeks, versus control group
  liver injury (histopathology): hepatocellular damage
[1]; electron microscopy 9,000×
  hepatocyte rough endoplasmic reticulum (rER) versus control: increased significantly
[2]
  GEC value: 3.4±0.6 mg/min·kg
[3]; control 44±6
  peak plasma ALT activity: 52±3 IU/L
[3]; control 116±11
  peak plasma AST activity: 129±10 IU/L
